pIC50: −log10 of the molar value.
Test system: 362531-283-R-J2-PDC complex spheroid viability
Assay: Anticancer human tumor 362531-283-R-J2-PDC patient-derived colon adenocarcinoma cell line growth inhibition [RAS]
Conditions: for pIC50: curve of first compound; for viability, T/C: stronger effect = lower value
Outline: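 Multi-cell-type spheroids: tumor cells plus HUVEC endothelial cells and mesenchymal stem cells. RAS-pathway inhibitors were combined with targeted agents, each dosed in half-log steps down from clinical Cmax, or from 10 microM when Cmax was unknown.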
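Note: spheroids exposed to the agents for 7 days before readout.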
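Throughout, for viability, T/C: luminescence viability as percent of DMSO vehicle control wells.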

CC(=O)OC12COC1CC(O)C1(C)C(=O)C(O)C3=C(C)C(OC(=O)C(O)C(NC(=O)OC(C)(C)C)c4ccccc4)CC(O)(C(OC(=O)c4ccccc4)C21)C3(C)C (configuration not stated) + C#Cc1c(F)ccc2cc(O)cc(-c3ncc4c(N5CC6CCC(C5)N6)nc(OCC56CCCN5CC(F)C6)nc4c3F)c12
pIC50 (second compound 0.0316 µM): 6.77
pIC50 (second compound 0.1 µM): 6.77
pIC50 (second compound 0.316 µM): 6.85
pIC50 (second compound 1 µM): 6.99
pIC50 (second compound 3.16 µM): 7.27
pIC50 (second compound 10 µM): > 7.50
viability, T/C (second compound 0.0316 µM, first compound 0.0316 µM): 83.2%
viability, T/C (second compound 0.0316 µM, first compound 0.1 µM): 76.4%
viability, T/C (second compound 0.0316 µM, first compound 0.316 µM): 18.4%
viability, T/C (second compound 0.0316 µM, first compound 1 µM): 14%
viability, T/C (second compound 0.0316 µM, first compound 3.16 µM): 14.6%
viability, T/C (second compound 0.0316 µM, first compound 10 µM): 18.5%
viability, T/C (second compound 0.1 µM, first compound 0.0316 µM): 81.9%
viability, T/C (second compound 0.1 µM, first compound 0.1 µM): 80.5%
viability, T/C (second compound 0.1 µM, first compound 0.316 µM): 13.6%
viability, T/C (second compound 0.1 µM, first compound 1 µM): 13.6%
viability, T/C (second compound 0.1 µM, first compound 3.16 µM): 13.4%
viability, T/C (second compound 0.1 µM, first compound 10 µM): 15.5%
viability, T/C (second compound 0.316 µM, first compound 0.0316 µM): 90.9%
viability, T/C (second compound 0.316 µM, first compound 0.1 µM): 64.4%
viability, T/C (second compound 0.316 µM, first compound 0.316 µM): 15.1%
viability, T/C (second compound 0.316 µM, first compound 1 µM): 11.7%
viability, T/C (second compound 0.316 µM, first compound 3.16 µM): 12.9%
viability, T/C (second compound 0.316 µM, first compound 10 µM): 11.8%
viability, T/C (second compound 1 µM, first compound 0.0316 µM): 81.2%
viability, T/C (second compound 1 µM, first compound 0.1 µM): 50.8%
viability, T/C (second compound 1 µM, first compound 0.316 µM): 13.6%
viability, T/C (second compound 1 µM, first compound 1 µM): 14.6%
viability, T/C (second compound 1 µM, first compound 3.16 µM): 13.6%
viability, T/C (second compound 1 µM, first compound 10 µM): 13.1%
viability, T/C (second compound 3.16 µM, first compound 0.0316 µM): 65.6%
viability, T/C (second compound 3.16 µM, first compound 0.1 µM): 32.4%
viability, T/C (second compound 3.16 µM, first compound 0.316 µM): 14.2%
viability, T/C (second compound 3.16 µM, first compound 1 µM): 15%
viability, T/C (second compound 3.16 µM, first compound 3.16 µM): 13.5%
viability, T/C (second compound 3.16 µM, first compound 10 µM): 13.5%
viability, T/C (second compound 10 µM, first compound 0.0316 µM): 32.3%
viability, T/C (second compound 10 µM, first compound 0.1 µM): 15.6%
viability, T/C (second compound 10 µM, first compound 0.316 µM): 13.5%
viability, T/C (second compound 10 µM, first compound 1 µM): 15.1%
viability, T/C (second compound 10 µM, first compound 3.16 µM): 13.6%
viability, T/C (second compound 10 µM, first compound 10 µM): 12.5%
